Test results from ChEMBL document CHEMBL1153498, “Aerobic oxidation of indolomorphinan without the 4,5-epoxy bridge and subsequent rearrangement of the oxidation product to spiroindolinonyl-C-normorphinan derivative” (Bioorg Med Chem, 2009).

Legend:
[1] = Displacement of [3H]NTI from Hartley guinea pig delta opioid receptor by liquid scintillation counter; parameters: species or system Cavia porcellus
Mu-type opioid receptor = Mu-type opioid receptor (Cavia porcellus, UniProt P97266); experiment: Displacement of [3H]DAMGO from Hartley guinea pig mu opioid receptor by liquid scintillation counter
Sequence of Mu-type opioid receptor (P97266 whole entry): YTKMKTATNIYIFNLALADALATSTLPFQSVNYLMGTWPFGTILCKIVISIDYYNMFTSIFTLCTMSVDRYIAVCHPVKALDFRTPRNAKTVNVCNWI

[2] = biological target: Kappa-type opioid receptor (Cavia porcellus, UniProt P41144); experiment: Displacement of […] from Hartley guinea pig kappa opioid receptor by liquid scintillation counter
Sequence of Kappa-type opioid receptor (P41144 whole entry): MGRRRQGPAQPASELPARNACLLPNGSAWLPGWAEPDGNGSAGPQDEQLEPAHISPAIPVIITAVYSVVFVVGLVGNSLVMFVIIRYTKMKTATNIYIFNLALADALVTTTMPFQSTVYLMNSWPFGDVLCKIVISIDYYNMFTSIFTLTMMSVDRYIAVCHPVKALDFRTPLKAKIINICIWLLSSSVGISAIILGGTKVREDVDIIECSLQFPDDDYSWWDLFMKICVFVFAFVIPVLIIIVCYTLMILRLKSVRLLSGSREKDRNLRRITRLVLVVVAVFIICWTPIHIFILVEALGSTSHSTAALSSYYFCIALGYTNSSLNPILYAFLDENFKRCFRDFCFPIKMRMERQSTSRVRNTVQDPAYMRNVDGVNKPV

Row | SMILES | Ki [1] [nM] | Ki (Mu-type opioid receptor) [nM] | Ki [2] [nM]
1 | O=C1c2ccccc2N[C@@]12C[C@]13CCN(CC4CC4)[C@H](Cc4ccc(O)cc41)[C@]3(O)C2 | 2.9 | 0.75 | 13.4
2 | CN1CC[C@]23c4c5ccc(O)c4O[C@H]2C(=O)C2(Cc4ccccc4C2)C[C@@]3(O)[C@H]1C5 [SPIROINDANYLOXYMORPHONE] | 1.4 |  | 
